Several values for one entry are separate records, joined by “and”; a condition that tells them apart may be missing. Equal values may be shown once. Entries after “also recorded” stand apart in the source; their conditions may differ.
Legend:
[1] = Storage modulus of HELP hydrogel with competitor, oscillatory shear rheology; type: physicochemical; conditions: for HELP modulus: 0 mM control ~3 kPa; for storage modulus (G) of HELP hydrogel, dose response: FIG. 11C, D, increasing competitor concentration, n=3; for fold change in modulus: HELP system, relative to no competitor
Experimental: The term “storage modulus” as used herein may be used interchangeably with the term “stiffness”. Storage modulus refers to the ratio of the elastic stress to strain and indicates a material's ability to store energy. The storage modulus may be measured using oscillatory shear rheology
The storage modulus of the HELP hydrogels were measured using oscillatory shear rheology.
The HELP hydrogel composition was 1 wt % ELP-Hydrazine (fully modified) and 1 wt % HA-Aldehyde (12% modified). Hydrazinoacetic acid was added to HELP hydrogels in four separate final concentrations, 0 mM, 5 mM, 10 mM and 20 mM and the storage modulus was measured over the course of 30 minutes.
The catalyst agent was 2-(Aminomethyl)benzimidazole and the competitor agent was butyraldehyde. The competitor agent was added at HELP hydrogels at a final concentration of 10 mM and the catalyst agent was added to a final concentration of 0.10 and 25 mM. The composition of the HELP hydrogel was 2 wt % ELP-Hydrazine (fully modified) and 1 wt % HA-Benzaldehyde (30% modified).
To initially assess the impact of a competitor on hydrogel stiffness, it was proposed that the effect on crosslinking density will depend upon the relative strength of the two competing reactions: (1) crosslinking-site and competitor and (2) crosslinking reaction (FIG. 11A). It was predict that as the relative strength of the competitor reaction (Keq^1) to crosslinking reaction (Keq^2) increases, there will be a greater disruption of crosslinks. To validate this, the impact of competitor Keq on the modulus of HELP formed from precursor solutions of HA-BZA and ELP-HYD at a 1:1 BZA to HYD ratio was determined. To minimize off-target reactions, competitors were added to the precursors solution that has the same functionality, i.e., hydrazine competitors added to ELP-HYD, aldehyde competitors added to HA-BZA. At 10 mM of competitor, which represents a ratio of 4:3 of competitor to crosslinking sites, all competitors led to a significant decrease in the HELP modulus compared to the 0 mM control (FIG. 11B). Based upon the hypothesis that the relative strength of the reactions will dictate crosslinking disruption, a larger decrease in modulus with competitors that result in an aromatic hydrazone (Keq^1/Keq^2˜10^0), double aromatic hydrazone (Keq^1/Keq^2˜10^1) and alkyl hydrazone (Keq^1/Keq^2˜10^2) should be seen.
The hydrogel modulus response to increasing concentrations of competitors was next examined. The decrease in modulus is dependent upon the concentration of the competitor. To examine this dose-dependent response, the competitors with the lowest (HydAA, aromatic hydrazone) and highest (Butanal, alkyl hydrazone) Keq were selected. Increasing the concentration of HydAA from 5, 10, and 20 mM further reduced the crosslinking density and modulus (2.3, 1.8, 1.3 kPa) in a concentration dependent manner (FIG. 11C). A similar response with Butanal was seen as we increase the concentration from 5 to 10 mM (FIG. 11D).

[2] = Hydrazone reaction rates of competitors with model reactants, UV spectroscopy; type: physicochemical; conditions: for k1 (forward reaction rate) / k−1 (×10^−4) (reverse reaction rate): 50 μM competitor and 50 μM model reactant (BZA or HydAA), saline solution, 25° C., mean (standard deviation), n = 4; for k−1 / k1: unit not given
Experimental: To quantify the extent that side groups impact reaction parameters, the forward (k1) and reverse (k−1) reaction rates were measured for each competitor at 50 μM (Table 2). For these reactions, the complementary reactant was chosen to be 50 μM of either benzaldehyde (BZA) or hydrazinoacetic acid (HydAA), because they are the crosslinking functionalities of HELP, and can provide key insight into DCC interactions without the complexity of the full HA and ELP polymers. (Winne, Leibler et al. 2019) The formation of a hydrazone bond was observed via absorbance with UV spectroscopy and converted to a concentration over time. An analytical solution to a second order reaction rate, assuming equal concentrations of reactants, was fit to the concentration as a function of time. (Dirksen, Dirksen et al. 2006, Mckinnon, Domaille et al. 2014)

[3] = Theoretical half-time to equilibrium of the competitor reaction; conditions: 10 mM; calculated from kinetic reaction parameters
Experimental: Using the kinetic reaction parameters, the theoretical half-time (t1/2) to was calculated to reach equilibrium of the competitor reaction at a concentration of 10 mM (FIG. 12C). […] This is consistent with the rationale that Butanal increases the gelation time because it is capable of rapidly reacting with the crosslinking sites, preventing them from participating in gelation. […] Using a simplified half-time model of just the competitor reaction, the user is able to qualitatively capture the measured gelation times of the complex competitor and crosslinking hydrogel system.

[4] = Gelation time of HELP hydrogel with competitor; type: physicochemical; conditions: for gelation time: 0 mM 42.3±5.5 s; for effect on gelation time of HELP hydrogel: FIG. 12A, B, n=3-4, one-way ANOVA
Experimental: The HELP hydrogel composition was 2 wt % ELP-Hydrazine (fully modified) and 1 wt % HA-Benzaldehyde (30% modified).
Based upon the observed and predicted effect of the competitor on hydrogel modulus, it was reasoned that transient disruption of crosslinking would alter gelation kinetics. The competitor kinetics delays the time to reach a percolated polymer network in a dose-dependent manner. Addition of a high concentration (20 mM) of a relatively slow reacting competitor Keq competitor (HydAA, k1˜10^−1, Keq˜ 10^3) results in a modest and nonsignificant increase in gelation time (tg=48.3±3.1 s), though it softened the hydrogel modulus from ˜3 kPa to 1.3 kPa. (FIG. 12A). […] The difference in gelation times can be attributed to the difference in forward reaction rate and equilibrium constants of the competitors, which both differ by over 2 orders of magnitude between Butanal and HydAA.

[5] = HELP hydrogel homogeneity by fluorescent dye distribution; type: physicochemical; conditions: 10 mM competitor vs rapidly gelling HELP without competitor; stiff (~3.5 kPa) HELP
Experimental: We propose that by using a competitor to increase gelation times, we can overcome the limitations of rapidly gelling hydrazone-crosslinked HELP. We compared the macroscopic structure of a stiff (˜3.5 kPa) HELP formulation with and without Butanal. Without a competitor, the hydrogel rapidly gelled, resulting in a heterogenous hydrogel with nonuniform distribution of polymer. However, addition of 10 mM Butanal allowed for adequate mixing of the polymers and a homogenous hydrogel (FIG. 12E). To quantitatively evaluate the heterogeneity of HELP hydrogels with or without a competitor, we added a fluorescent dye and compared the spatial distribution of the fluorescent signal. […] By using a rapidly reaction competitor to slow down gelation kinetics, we have developed a solution to the challenge of inhomogeneous DCC hydrogels, and produced a uniform HELP hydrogel.

[6] = 10 mM competitor, HA-BZA and ELP-HYD at 1:1 BZA to HYD

**Q.** For `NCc1nc2ccccc2[nH]1` [2-(Aminomethyl)benzimidazole], which “storage modulus of HELP hydrogels with catalyst and competitor” value ([1]; FIG. 9, catalyst 0.10 and 25 mM with 10 mM butyraldehyde, 24 hours diffusion into preformed hydrogel, 2 wt % ELP-Hydrazine, 1 wt % HA-Benzaldehyde (30% modified)) is on record?
**A.** Its value is “reduced in a dose-dependent manner”.

**Q.** With `O=Cc1ccccc1` [Benzaldehyde, benzaldehyde] as the compound, how does the “k1 (forward reaction rate)” value [2] read?
**A.** Its value is 0.276 (0.070) M^−1 s^−1.

**Q.** And the “k−1 (×10^−4) (reverse reaction rate)” value [2]?
**A.** The value was 1.71 (0.280) ×10^−4 s^−1.

**Q.** And the “theoretical half-time (t1/2) to reach equilibrium of the competitor reaction” value (from here on “theoretical half-time”) [3]?
**A.** Its value is 4.23 ± 1.33 min.

**Q.** For `CCCC=O` [Butyraldehyde, butyraldehyde], which “k1 (forward reaction rate)” value [2] is on record?
**A.** The value was 59.9 (5.49) M^−1 s^−1.

**Q.** What about the “k−1 (×10^−4) (reverse reaction rate)” value [2] of the same compound?
**A.** The value was 4.49 (1.07) ×10^−4 s^−1.

**Q.** What about the “k−1” value [2] of the same compound?
**A.** The value was 4.49±1.07×10^−4.

**Q.** What about the k1 ([2]; listed as Butanal) of the same compound?
**A.** The k1 was 59.9±5.49.

**Q.** What about the k1 ([2]; listed as Butunal) of the same compound?
**A.** The k1 was ~10^1.

**Q.** What about the HELP modulus ([1]; 5 mM competitor) of the same compound?
**A.** The HELP modulus was 1.75 kPa.

**Q.** And the HELP modulus [1, 6]?
**A.** Its HELP modulus is 0.29±0.2 kPa.

**Q.** And the HELP hydrogel formation ([1]; 20 mM competitor (2.7× crosslinking sites), listed as Butanal)?
**A.** Its HELP hydrogel formation is “disrupt formation of a hydrogel; also recorded: inhibition of HELP gel formation”.

**Q.** And the “storage modulus (G) of HELP hydrogel, dose response” value [1]?
**A.** The value was “dose-dependent decrease”.

**Q.** And the “fold change in modulus” value [1]?
**A.** Its value is 0.1 fold.

**Q.** What about the “increase of gelation time” value ([4]; 5 mM competitor) of the same compound?
**A.** The value was ~1.7 fold.

**Q.** And the gelation time ([4]; 5 mM competitor)?
**A.** The gelation time was 74.8 ± 10.0 s.

**Q.** What about the gelation time ([4]; 10 mM competitor) of the same compound?
**A.** The gelation time was 92.3 ± 5.1 s.

**Q.** What about the “effect on gelation time of HELP hydrogel” value [4] of the same compound?
**A.** The value was “significantly increases gelation time in a dose-dependent manner”.

**Q.** What about the “theoretical half-time” value [3] of the same compound?
**A.** The value was 0.0265 ± 0.00233 min.

**Q.** What about the “variance of fluorescence intensity (hydrogel heterogeneity)” value [5] of the same compound?
**A.** Its value is “significantly lower variance”.

**Q.** With `NNCC(=O)O` [Hydrazinoacetic acid, hydrazinoacetic acid] as the compound, how does the “k1 (forward reaction rate)” value [2] read?
**A.** Its value is 0.276 (0.070) M^−1 s^−1.

**Q.** And the “k−1 (×10^−4) (reverse reaction rate)” value [2]?
**A.** The value was 1.71 (0.280) ×10^−4 s^−1.

**Q.** And the k1 [2]?
**A.** Its k1 is ~10^−1.

**Q.** And the “k−1” value [2]?
**A.** The value was ~10^−4.

**Q.** What about the HELP modulus ([1]; 5 mM competitor) of the same compound?
**A.** Its HELP modulus is 2.3 kPa.

**Q.** What about the HELP modulus ([1]; 10 mM competitor, HA-BZA and ELP-HYD at 1:1 BZA to HYD, listed as HydAA) of the same compound?
**A.** Its HELP modulus is 1.75±0.3 kPa and 1.8 kPa and 1.75 kPa.

**Q.** And the HELP modulus ([1]; 20 mM competitor)?
**A.** The HELP modulus was 1.3 kPa.

**Q.** What about the “storage modulus of HELP hydrogels, dose response” value ([1]; FIG. 2, 0, 5, 10 and 20 mM) of the same compound?
**A.** The value was “reduced the storage modulus in a dose dependent manner”.

**Q.** What about the “time to reach the plateau storage modulus” value ([1]; FIG. 3, 1 wt % ELP-Hydrazine, 1 wt % HA-Aldehyde (12% modified), 0, 5, 10, 20 mM) of the same compound?
**A.** The value was “increased the time to reach the plateau storage modulus”.

**Q.** What about the “storage modulus of HELP hydrogels over time” value ([1]; FIG. 3, 1 wt % ELP-Hydrazine, 1 wt % HA-Aldehyde (12% modified), 0, 5, 10, 20 mM, 30 minutes) of the same compound?
**A.** The value was “reduced the storage modulus of HELP hydrogels in a dose dependent manner”.

**Q.** And the “storage modulus (G) of HELP hydrogel, dose response” value [1]?
**A.** Its value is “dose-dependent decrease”.

**Q.** And the “fold change in modulus” value [1]?
**A.** The value was 0.6 fold.

**Q.** And the gelation time ([4]; 10 mM competitor)?
**A.** Its gelation time is “did not significantly impact gelation”.

**Q.** And the “gelation time (tg)” value ([4]; 20 mM HydAA (slow-reacting competitor))?
**A.** Its value is 48.3 ± 3.1 s.

**Q.** What about the “gelation time, dose response” value ([4]; FIG. 4, 0, 5, 10 mM, 2 wt % ELP-Hydrazine, 1 wt % HA-Benzaldehyde (30% modified)) of the same compound?
**A.** Its value is “increased the gelation time in a dose dependent manner”.

**Q.** And the “increase of gelation time” value ([4]; FIG. 4, 10 mM, 2 wt % ELP-Hydrazine, 1 wt % HA-Benzaldehyde (30% modified))?
**A.** The value was “approximately 30 seconds”.

**Q.** What about the “effect on gelation time of HELP hydrogel” value [4] of the same compound?
**A.** The value was “does not significantly increase”.

**Q.** What about the “theoretical half-time” value [3] of the same compound?
**A.** The value was 4.23 ± 1.33 min.

**Q.** With `NNc1ccc(C(=O)O)cc1` [Hydrazinobenzoic acid, 4-hydrazinobenzoic acid] as the compound, how does the “k1 (forward reaction rate)” value [2] read?
**A.** Its value is 2.10 (0.40) M^−1 s^−1.

**Q.** And the “k−1 (×10^−4) (reverse reaction rate)” value [2]?
**A.** Its value is 1.00 (0.077) ×10^−4 s^−1.

**Q.** And the k1 [2]?
**A.** Its k1 is 2.10±0.400.

**Q.** What about the “k−1” value [2] of the same compound?
**A.** The value was 1.00±0.077×10^−4.

**Q.** What about the HELP modulus [1, 6] of the same compound?
**A.** The HELP modulus was 0.86±0.04 kPa.

**Q.** What does the source list for `NNCCO` [Hydrazinoethanol, 2-hydrazinoethanol]?
**A.** k1 (forward reaction rate) [2]: 0.690 (0.301) M^−1 s^−1; k−1 (×10^−4) (reverse reaction rate) [2]: 1.12 (0.469) ×10^−4 s^−1; k1 [2]: ~10^−1; k−1 [2]: ~10^−4
